Laboratory results reported in patent publication US4529736A, “3a-(substituted phenyl)-2,3,3a,4,7,7a-hexahydro[or 3a-(substituted-phenyl)octahydro]-4,7-alkano-1H-isoindoles for treating depression in warm-blooded animals” (American Cyanamid Company, priority 1983, dated 1985).
Where a name gives a salt, the structure may show the parent alone. Read-outs that look alike come from different tables or passages of the source.

Columns and labels:
[1] = target: T1, [^3 H]-imipramine binding to human platelet membranes (Homo sapiens, UniProt P31645); experiment: Platelet Imipramine Binding: inhibition of [^3 H]-imipramine binding to human platelet membranes; settings: 50 μl of 50 μM compound stock + 200 μl membrane/[^3 H]imipramine mixture; 60 minutes at 0° C.; 10 μM desmethylimipramine = 0% binding
T1 construct: from tissue; host or cells: human platelets (sonicated, washed membranes)
T1 sequence (P31645 whole entry): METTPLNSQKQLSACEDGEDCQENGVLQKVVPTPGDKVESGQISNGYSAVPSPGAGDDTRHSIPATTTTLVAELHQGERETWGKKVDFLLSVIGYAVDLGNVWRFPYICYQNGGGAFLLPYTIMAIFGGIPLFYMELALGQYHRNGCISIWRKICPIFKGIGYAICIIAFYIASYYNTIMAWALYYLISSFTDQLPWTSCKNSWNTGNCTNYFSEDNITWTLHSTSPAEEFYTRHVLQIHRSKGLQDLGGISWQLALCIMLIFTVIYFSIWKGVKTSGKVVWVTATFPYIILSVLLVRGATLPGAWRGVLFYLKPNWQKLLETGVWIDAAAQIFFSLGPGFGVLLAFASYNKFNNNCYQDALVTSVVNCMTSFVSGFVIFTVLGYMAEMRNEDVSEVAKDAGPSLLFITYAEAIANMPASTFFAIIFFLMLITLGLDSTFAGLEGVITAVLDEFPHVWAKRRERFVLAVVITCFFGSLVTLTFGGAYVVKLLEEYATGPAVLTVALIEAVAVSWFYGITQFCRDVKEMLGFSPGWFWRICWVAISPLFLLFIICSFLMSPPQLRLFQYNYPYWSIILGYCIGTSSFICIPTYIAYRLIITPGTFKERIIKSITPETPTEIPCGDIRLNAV
Method: The activity of the compounds of this invention as antidepressant agents was further verified in the following test which measures the ability of a test compound to inhibit [^3 H]-imipramine binding to human platelet membranes.
Human platelet concentrates were diluted 1:20 with antiprotease containing buffer of the following composition:
0.005N potassium chloride
3 mN ethylenediaminetetraacetic acid
1 mN ethyleneglycol-bis-(β-aminoethyl ether)-N,N'-tetraacetic acid
This buffer was kept at pH 6.8 to prevent platelet release and aggregation.
The diluted platelets were centrifuged at 2500 g and then resuspended in 50 volumes of the same buffer. The cells were then ruptured with a Branson sonicator while the suspension was maintained in an ice bath. The ruptured cells were then centrifuged at 18,000 g, resuspended in fresh buffer and recentrifuged at 18,000 g. These membranes were diluted with the above antiprotease buffer which had been adjusted to pH 7.4 and to a concentration of 3.0 mg/ml.
The test compounds were dissolved in dimethylsulfoxide at a concentration of 50 mM and then diluted 1:10 in either water, 0.1M hydrochloric acid or 0.1M sodium hydroxide. They were then diluted 1:100 in buffer to 50 μM, and 50 μl of this stock solution was placed in triplicate test tubes. The tubes were cooled to 0° C. and 200 μl of the following mixture were added:
100 μl of 3 mg/ml membrane in buffer
50 μl of 15 nM[^3 H]imipramine in buffer
The tubes were incubated for 60 minutes at 0° C. Controls contain either buffer alone (100%) of 10 μM of final desmethylimipramine (DMI) (0%).
The samples were diluted with 5 ml of buffer [0.12M-sodium chloride, 0.05M-tris buffer, 0.005M-potassium chloride (pH 7.4)], vacuum filtered and washed twice with 5 ml of buffer. Radioactivity was measured in a liquid scintillation counter and the degree of binding was calculated.

[2] = test system: tetrabenazine-induced depression; experiment: Tetrabenazine Induced Depression (exploratory behaviour); format: in vivo; settings: Mus musculus, read-out: % Mice Protected
Method: The compounds of this invention are useful as antidepressant agents in warm-blooded animals as verified by the following test. The antidepressant properties of these compounds were tested by measuring their ability to counteract depression induced in animals by the administration of tetrabenazine methanesulfonate. Each test compound was administered orally (P.O.) or intraperitoneally (I.P.) to 10 mice at a dose of 25 mg/kg of body weight. Thirty minutes later, tetrabenazine methanesulfonate was administered intraperitoneally to each mouse at a dose of 39 mg/kg of body weight, which dose is known to depress markedly the exploratory behaviour of normal mice. Thirty minutes later the mice were tested for their exploratory behaviour as described by E. Greenblatt and A. C. Osterberg, Toxicology and Applied Pharmacology, 7, 566-578 (1965).

[3] = test system: tetrabenazine-induced ptosis; experiment: Tetrabenazine Induced Ptosis (inhibition of ptosis); format: in vivo; settings: Mus musculus, read-out: % Mice Responding
Method: The antidepressant activity of the compounds of this invention was further established in the following test. Inhibition of tetrabenazine-induced ptosis is observed concomitantly with the inhibition of tetrabenazine-induced depression. Ptosis is defined as more than 75% closure of palpebral aperture induced in animals by the administration of tetrabenazine methanesulfonate. The compounds were administered orally (P.O.) or intraperitoneally (I.P.) at 25 mg/kg to groups of 10 mice. Thirty minutes later, tetrabenazine methanesulfonate was administered intraperitoneally to each mouse at a dose of 39 mg/kg. Thirty minutes after the injection of tetrabenazine, the mice were placed on an observation disc and examined for 10 seconds for inhibition of ptosis. […]

[4] = test system: stress induced depressed ("coping") behavior; experiment: Stress Induced Depressed Behavior Test; format: in vivo; settings: rats, intraperitoneally at 5-20 mg/kg; warm (44.5° C.) surface for 15 minutes; high ratio = active
Method: The compounds of this invention are active as antistress agents in warm-blooded animals as evidenced by their results when tested in the Stress Induced Depressed Behavior Test. In this test, rats were confined on a warm (44.5° C.), but aversive, surface for 15 minutes. After 5-6 minutes, control rats began to show episodes of depressed ("coping") behavior where they remained flat and immobile for short to long periods of time. The onset and total duration of this behavior was timed. A ratio of onset/duration was calculated. The test compounds were administered intraperitoneally at 5-20 mg/kg of body weight. Active compounds prolong the time of onset and shorten the duration time resulting in high ratios.

SMILES	inhibition at 10 µM [1] [%]	responders at 25 mg/kg ([2]; ip) [%]	responders at 25 mg/kg ([3]; po) [%]	responders at 25 mg/kg ([3]; ip) [%]	responders at 25 mg/kg ([2]; po) [%]	Ratio onset/duration [4]	responders at 25 mg/kg ([2]; po, P.O., 25 mg/kg, 10 mice, tetrabenazine methanesulfonate 39 mg/kg I.P.) [%]	responders at 25 mg/kg ([3]; po, P.O., 25 mg/kg, responders: 75% or greater opening of palpebral aperture) [%]
Cc1ccc([C@@]23CN(C)C[C@@H]2[C@@H]2C=C[C@H]3C2)cc1 (relative stereo) [2,3,3a,4,7,7a-Hexahydro-2-methyl-3a-(4-methylphenyl)-4,7-methano-1H-isoindole maleate (1:1)]	98	80	90	–	–	–	–	–
CN1C[C@@H]2[C@@H]3C=C[C@@H](C3)[C@]2(c2cccc(C(F)(F)F)c2)C1 (relative stereo) [2,3,3a,4,7,7a-Hexahydro-2-methyl-3a-[3-(trifluoromethyl)phenyl]-4,7-methano-1H-isoindole fumarate]	91	70	–	100	–	–	–	–
COc1cccc([C@@]23CN(C)C[C@@H]2[C@@H]2C=C[C@H]3C2)c1 (relative stereo) [2,3,3a,4,7,7a-Hexahydro-3a-(3-methoxyphenyl)-2-methyl-4,7-methano-1H-isoindole maleate (1:1)]	86	–	60	–	40	–	–	–
Cc1ccc([C@@]23CNC[C@@H]2[C@@H]2C=C[C@H]3C2)cc1 (relative stereo) [2,3,3a,4,7,7a-Hexahydro-3a-(4-methylphenyl)-4,7-methano-1H-isoindole maleate (1:1)]	94	–	–	60	–	–	–	–
CN1C[C@@H]2[C@@H]3C=C[C@@H](C3)[C@]2(c2cccc(O)c2)C1 (relative stereo) [3-(1,2,3,4,7,7a-Hexahydro-2-methyl-4,7-methano-3aH-isoindol-3a-yl)phenol]	86	–	100	–	60	–	–	–
Clc1ccc([C@@]23CNC[C@@H]2[C@@H]2C=C[C@H]3C2)cc1 (relative stereo) [3-a-(4-Chlorophenyl)-2,3,3a,4,7,7a-hexahydro-4,7-methano-1H-isoindole fumarate]	98	60	80	–	–	–	–	–
CCN1C[C@@H]2C3CCC(CC3)[C@]2(c2ccc(Cl)c(Cl)c2)C1 (relative stereo) [3a-(3,4-Dichlorophenyl)-2-ethyloctahydro-4,7-ethano-1H-isoindole fumarate (1:1)]	89	–	–	100	50	66	–	–
CN1C[C@@H]2C3CCC(CC3)[C@]2(c2ccc(Cl)c(Cl)c2)C1 (relative stereo) [3a-(3,4-Dichlorophenyl)octahydro-2-methyl-4,7-ethano-1H-isoindole fumarate (1:1)]	94	–	–	90	50	83	–	–
CN1C[C@@H]2[C@@H]3CC[C@@H](C3)[C@]2(c2ccc(Cl)c(Cl)c2)C1 (relative stereo) [3a-(3,4-Dichlorophenyl)octahydro-2-methyl-4,7-methano-1H-isoindole hydrochloride]	93	60	–	100	–	59	–	–
Clc1ccc([C@@]23CNC[C@@H]2[C@@H]2CC[C@H]3C2)cc1Cl (relative stereo) [3a-(3,4-Dichlorophenyl)octahydro-4,7-methano-1H-isoindole hydrochloride]	96	–	–	100	40	76	–	–
CN1C[C@@H]2C3CCC(CC3)[C@]2(c2ccc(F)c(F)c2)C1 (relative stereo) [3a-(3,4-Difluorophenyl)octahydro-2-methyl-4,7-ethano-1H-isoindole fumarate (1:1)]	100	–	–	–	–	–	–	–
CN1C[C@@H]2[C@@H]3CC[C@@H](C3)[C@]2(c2ccc(F)c(F)c2)C1 (relative stereo) [3a-(3,4-Difluorophenyl)octahydro-2-methyl-4,7-methano-1H-isoindole fumarate (1:1)]	95	50	–	70	–	–	–	–
CN1C[C@@H]2[C@@H]3C=C[C@@H](C3)[C@]2(c2cccc(Cl)c2)C1 (relative stereo) [3a-(3-Chlorophenyl)2,3,3a,4,7,7a-hexahydro-2-methyl-4,7-methano-1H-isoindole fumarate (1:1)]	86	60	–	100	–	13	–	–
C[N+]1(C)C[C@@H]2[C@@H]3CC[C@@H](C3)[C@]2(c2ccc(N=[N+]=[N-])cc2)C1 (relative stereo) [3a-(4-Azidophenyl)octahydro-2,2-dimethyl-4,7-methano-1H-isoindolium iodide]	88	–	–	–	–	–	30	100
CN1C[C@@H]2[C@@H]3CC[C@@H](C3)[C@]2(c2ccc(Cl)cc2)C1 (relative stereo) [3a-(4-Chlorophenyl)octahydro-2-methyl-4,7-methano-1H-isoindole fumarate (1:1)]	91	60	–	90	–	20	–	–
CN1C[C@@H]2[C@@H]3CC[C@@H](C3)[C@]2(c2ccc(N)cc2)C1 (relative stereo) [4-(1,2,3,4,5,6,7,7a-Octahydro-2-methyl-4,7-methano-3aH-isoindol-3a-yl)benzenamine fumarate (1:1)]	80	50	–	100	–	–	–	–
CN1C[C@@H]2[C@@H]3C=C[C@@H](C3)[C@]2(c2ccc(N)cc2)C1 (relative stereo) [4-(1,2,3,4,7,7a-Hexahydro-2-methyl-4,7-methano-3aH-isoindol-3a-yl)benzenamine fumarate (1:2)]	–	–	–	100	70	–	–	–
CN1C[C@@H]2[C@@H]3CC[C@@H](C3)[C@]2(c2ccc([N+](=O)[O-])cc2)C1 (relative stereo) [Octahydro-2-methyl-3a-(4-nitrophenyl)-4,7-methano-1H-isoindole fumarate (1:1)]	66	30	–	70	–	–	–	–
c1ccc([C@@]23CNC[C@@H]2[C@@H]2CC[C@H]3C2)cc1 (relative stereo) [Octahydro-3a-phenyl-4,7-methano-1H-isoindole fumarate]	98	50	–	50	–	–	–	–
